Patent publication US7241581B2, “Methods of identifying compounds that modulate IL-4 receptor-mediated IgE synthesis utilizing a c-MYC protein” (Rigel Pharmaceuticals, Inc., priority 2002, dated 2007)

Tested on: IL-4 induced germline ε transcription
Test: A5T4 reporter line screening of single cell clones (+Dox vs -Dox, IL-4 stimulated, GFP by FACS)
Format: cell-based, human
Settings: geometric mean GFP fluorescence +IL-4/+Dox to +IL-4/-Dox; IL-4 60 U/mL, Dox 10 ng/ml; library clone
Excerpt: Peptide BR10A1 wt was identified by screening a retroviral library of random peptide 20-mers for the ability to inhibit IL-4 induced germline ε transcription using the HBEGF2a/diphtheria dual reporter phenotypic screening system described in WO 01/31232. To construct the random library, A5T4 reporter cells (described in more detail below) were infected with an infectious retroviral library of random peptide 20-mers (prepared as described in WO 97/27213; see also WO 01/34806 at page 39, line 36 through page 40, line 19). The retroviral vector used includes a gene encoding blue fluorescent protein (BFP) fused upstream of the region encoding the random peptide via a linker region encoding an α-helical peptide linker (expression fusion product is referred to as “BFP-peptide”). Expression of the BFP-peptide product is controlled by a promoter sensitive to the tetracycline-regulated transactivator such that expression of the BFP-peptide is regulated by tetracycline (Tet) or doxycycline (Dox). See U.S. patent application Ser. No. 10/096,339, entitled “Methods and Compositions for Screening for Altered Cellular Phenotypes,” filed on Mar. 8, 2002. […]

## MQRRESCITRSVEEGWGLFYLGP (peptide encoded by random oligo-BR10A1wt) [wild-type peptide from random library, expressed in cells as BFP-peptide fusion]
  Reporter Ratio: 1.26
